Results on 7 compounds are retold here after publication PMC4503722, “Novel Phenotypic Outcomes Identified for a Public Collection of Approved Drugs from a Publicly Accessible Panel of Assays” (PLoS ONE, 2015).

pEC50, pIC50: −log10 of the molar value. Where two headings read alike, the source gives them in different places. Some results are limits rather than exact numbers.

In assay [1] the test system is endothelial tube formation in co-cultures of ECFCs and ADSCs treated with VEGF. As to the kind of experiment: cells. It is filed as cell-based, human.
Assay [2] deals with HeLa cells. As to the kind of experiment: cells. The following applies: for pEC50: HeLa, read-out: CellCycle G2/M. It is filed as cell-based.
For assay [3], the system named is DLD-1. Nature of the assay: cells. It is filed as cell-based.
Assay [4] deals with HCT116. As to the kind of experiment: cells. Format: cell-based.
Assay [5] relates to HCT116 cells treated with a GSK3β inhibitor. Nature of the assay: cells. Format: cell-based.
Assay [6] deals with Colo320. As to the kind of experiment: cells. It is filed as cell-based.
The target in assay [7] is T1, hp70S6K1 (RPS6KB1) (Homo sapiens, UniProt P23443).
T1 construct: purchased Cerep (LANCE kinase assay platform, contract assay)
Nature of the assay: Cerep LANCE kinase assay hp70S6K1 (S1 assay 31). Format: biochemical. A general note: Time-resolved FRET reads energy transfer from a long-lived donor to a nearby acceptor.

Assay [8] concerns the target T2, hKDR (Homo sapiens, UniProt P35968).
T2 construct: purchased Cerep (LANCE kinase assay platform, contract assay)
As to the kind of experiment: Cerep LANCE kinase assay hKDR (S1 assay 32). It is filed as biochemical.

Assay [9] concerns the target T3, hGSK3b (Homo sapiens, UniProt P49841).
T3 construct: purchased Cerep (LANCE kinase assay platform, contract assay)
As to the kind of experiment: Cerep LANCE kinase assay hGSK3b (S1 assay 34). Format: biochemical.

In assay [10] the target is T4, hFLT3 (Homo sapiens, UniProt P36888).
T4 construct: purchased Cerep (LANCE kinase assay platform, contract assay)
Nature of the assay: Cerep LANCE kinase assay hFLT3 (S1 assay 35). Format: biochemical.

Assay [11] deals with ECFC/ADSC co-culture cell nuclei number. Particulars: read-out: VEGF_ADSC\ECFC Angio Hoechst NucArea summarized IC50.
Assay [12] has as its system SW480. As to the kind of experiment: cells. Format: cell-based.
Assay [13] deals with HT-29. As to the kind of experiment: cells. Format: cell-based.
The subject of assay [14] is RKO. As to the kind of experiment: cells. It is filed as cell-based.
Assay [15] relates to SNU-C1. Nature of the assay: cells. Format: cell-based.
Assay [16] has as its target T5, hJAK2 (Homo sapiens, UniProt O60674).
T5 construct: purchased Cerep (LANCE kinase assay platform, contract assay)
As to the kind of experiment: Cerep LANCE kinase assay hJAK2 (S1 assay 33). It is filed as biochemical. Particulars: assay number 33; read-out: hJAK2 LANCE summarized IC50.

Assay [17] concerns nuclear β-catenin in C2C12 cells. Nature of the assay: cells. It is filed as cell-based.
In assay [18] the test system is INS-1E cells. Nature of the assay: cells. Format: cell-based, rat.
The test system of assay [19] is NCI-H716 cells. Nature of the assay: cells. Format: cell-based, Human.
The mark [20] stands for this setting: Homo sapiens, DLD-1, read-out: Basal_Viability ATP DLD-1.
The mark [21] stands for this setting: Homo sapiens; read-out: Anti-Angiogenesis.
[22] abbreviates: Mus musculus, C2C12; read-out: Wnt Pathway.
[23] abbreviates: Rattus norvegicus, INS-1E; read-out: Insulin Secretion.
Where [24] appears, read: Homo sapiens, NCI-H716; read-out: GLP 1 Secretion.
[25] abbreviates: Homo sapiens, S2 Table, 20 = no response at highest concentration.
[26] abbreviates: Homo sapiens, HCT-116, basal, HCT116, read-out: Basal_Viability ATP HCT116.
Where [27] appears, read: Homo sapiens, HCT-116, HCT116 pretreated with GSK3b inhibitor, read-out: GSK3b inh pretreated_Viability ATP HCT116.
The mark [28] stands for this setting: Homo sapiens; basal; Colo 320; read-out: Basal_Viability ATP Colo 320.
Where [29] appears, read: Homo sapiens, basal, HT-29, read-out: Basal_Viability ATP HT-29.
Where [30] appears, read: Homo sapiens, basal, RKO, read-out: Basal_Viability ATP RKO.
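Throughout, for Hela CellCycMod PI 4N summarized IC50: value tracks stimulation of 4N DNA content.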

T3 sequence (P49841 whole entry): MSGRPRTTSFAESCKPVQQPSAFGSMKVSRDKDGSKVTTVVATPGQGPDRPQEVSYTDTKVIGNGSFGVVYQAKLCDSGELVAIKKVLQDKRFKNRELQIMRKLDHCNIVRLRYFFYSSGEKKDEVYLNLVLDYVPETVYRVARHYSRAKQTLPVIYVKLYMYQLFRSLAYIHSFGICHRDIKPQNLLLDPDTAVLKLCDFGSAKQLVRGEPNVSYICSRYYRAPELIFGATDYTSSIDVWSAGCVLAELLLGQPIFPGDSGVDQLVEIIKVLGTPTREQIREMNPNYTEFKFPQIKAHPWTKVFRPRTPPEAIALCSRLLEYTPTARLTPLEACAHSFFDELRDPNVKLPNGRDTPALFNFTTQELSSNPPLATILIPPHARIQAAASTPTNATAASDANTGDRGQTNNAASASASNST
T1 sequence (P23443 whole entry): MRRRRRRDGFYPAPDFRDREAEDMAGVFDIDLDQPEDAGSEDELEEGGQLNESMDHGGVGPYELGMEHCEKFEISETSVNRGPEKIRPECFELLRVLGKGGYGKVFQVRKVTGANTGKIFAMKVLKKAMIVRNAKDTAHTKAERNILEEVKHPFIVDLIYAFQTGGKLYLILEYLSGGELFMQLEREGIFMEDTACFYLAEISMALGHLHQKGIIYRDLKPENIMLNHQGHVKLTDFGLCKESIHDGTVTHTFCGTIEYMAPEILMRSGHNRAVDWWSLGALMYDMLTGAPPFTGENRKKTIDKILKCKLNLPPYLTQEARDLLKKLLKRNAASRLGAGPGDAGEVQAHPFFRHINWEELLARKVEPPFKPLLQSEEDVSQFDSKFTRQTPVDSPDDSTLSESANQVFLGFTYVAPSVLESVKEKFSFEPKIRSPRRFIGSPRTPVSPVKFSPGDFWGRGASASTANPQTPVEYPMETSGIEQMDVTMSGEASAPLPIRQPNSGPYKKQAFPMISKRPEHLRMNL
T4 sequence (P36888 27-993): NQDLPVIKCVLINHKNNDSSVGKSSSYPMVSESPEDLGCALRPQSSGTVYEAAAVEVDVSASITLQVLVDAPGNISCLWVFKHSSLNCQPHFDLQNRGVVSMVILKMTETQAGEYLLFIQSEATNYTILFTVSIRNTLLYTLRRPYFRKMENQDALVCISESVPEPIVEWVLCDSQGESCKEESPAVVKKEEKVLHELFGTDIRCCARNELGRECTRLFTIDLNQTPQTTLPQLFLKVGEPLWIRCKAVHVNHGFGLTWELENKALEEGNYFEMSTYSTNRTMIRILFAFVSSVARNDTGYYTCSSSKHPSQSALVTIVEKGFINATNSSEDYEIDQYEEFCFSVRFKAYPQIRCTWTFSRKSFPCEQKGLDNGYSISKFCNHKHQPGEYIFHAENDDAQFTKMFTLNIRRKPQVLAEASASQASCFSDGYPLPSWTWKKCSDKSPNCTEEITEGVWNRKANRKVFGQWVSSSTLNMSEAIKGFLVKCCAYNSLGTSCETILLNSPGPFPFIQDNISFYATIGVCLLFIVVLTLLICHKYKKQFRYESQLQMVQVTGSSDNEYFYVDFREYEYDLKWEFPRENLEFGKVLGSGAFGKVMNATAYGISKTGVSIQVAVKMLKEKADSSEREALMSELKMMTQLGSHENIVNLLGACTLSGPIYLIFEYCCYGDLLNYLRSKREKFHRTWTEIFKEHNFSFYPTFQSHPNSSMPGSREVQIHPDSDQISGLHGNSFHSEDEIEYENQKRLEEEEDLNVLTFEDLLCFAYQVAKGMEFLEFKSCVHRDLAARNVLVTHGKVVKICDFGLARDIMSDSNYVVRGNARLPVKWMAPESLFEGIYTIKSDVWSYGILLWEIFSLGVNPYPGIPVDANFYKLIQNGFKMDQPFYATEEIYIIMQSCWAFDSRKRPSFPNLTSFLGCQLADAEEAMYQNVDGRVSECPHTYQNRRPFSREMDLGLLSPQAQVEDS
T2 sequence (P35968 20-1356): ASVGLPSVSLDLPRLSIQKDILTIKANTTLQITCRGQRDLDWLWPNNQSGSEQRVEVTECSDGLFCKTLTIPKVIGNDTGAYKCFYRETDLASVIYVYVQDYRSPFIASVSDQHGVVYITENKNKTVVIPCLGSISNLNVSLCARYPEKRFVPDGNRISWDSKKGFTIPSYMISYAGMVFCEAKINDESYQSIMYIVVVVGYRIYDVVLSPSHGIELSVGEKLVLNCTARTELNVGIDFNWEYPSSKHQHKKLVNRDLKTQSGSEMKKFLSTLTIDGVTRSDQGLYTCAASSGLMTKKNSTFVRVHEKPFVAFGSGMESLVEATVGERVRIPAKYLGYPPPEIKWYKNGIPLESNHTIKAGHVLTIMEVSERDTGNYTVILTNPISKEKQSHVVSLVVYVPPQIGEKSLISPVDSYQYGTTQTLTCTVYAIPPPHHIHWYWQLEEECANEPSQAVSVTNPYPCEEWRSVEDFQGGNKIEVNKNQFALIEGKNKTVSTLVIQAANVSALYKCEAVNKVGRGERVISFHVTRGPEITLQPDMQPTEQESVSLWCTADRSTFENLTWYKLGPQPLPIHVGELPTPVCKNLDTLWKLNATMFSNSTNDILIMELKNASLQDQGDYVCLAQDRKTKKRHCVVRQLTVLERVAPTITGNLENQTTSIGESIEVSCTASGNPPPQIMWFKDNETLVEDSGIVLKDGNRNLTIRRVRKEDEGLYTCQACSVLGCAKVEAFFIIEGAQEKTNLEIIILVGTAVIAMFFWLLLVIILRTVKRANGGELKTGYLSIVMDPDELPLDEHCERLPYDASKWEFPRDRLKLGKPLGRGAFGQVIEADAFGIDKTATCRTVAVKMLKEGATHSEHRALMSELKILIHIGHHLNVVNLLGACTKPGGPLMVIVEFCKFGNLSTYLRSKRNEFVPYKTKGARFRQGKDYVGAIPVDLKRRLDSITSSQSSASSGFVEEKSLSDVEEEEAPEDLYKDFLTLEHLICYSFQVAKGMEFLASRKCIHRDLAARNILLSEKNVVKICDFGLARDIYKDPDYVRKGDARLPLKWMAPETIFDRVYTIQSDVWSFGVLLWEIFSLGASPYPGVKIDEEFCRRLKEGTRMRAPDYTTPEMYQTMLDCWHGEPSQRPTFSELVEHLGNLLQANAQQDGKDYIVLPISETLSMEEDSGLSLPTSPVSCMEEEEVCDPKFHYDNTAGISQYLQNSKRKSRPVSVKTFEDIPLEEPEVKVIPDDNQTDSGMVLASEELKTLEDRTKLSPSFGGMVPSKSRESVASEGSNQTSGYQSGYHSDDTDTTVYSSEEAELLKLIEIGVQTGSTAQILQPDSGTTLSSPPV
T5 sequence (O60674 whole entry): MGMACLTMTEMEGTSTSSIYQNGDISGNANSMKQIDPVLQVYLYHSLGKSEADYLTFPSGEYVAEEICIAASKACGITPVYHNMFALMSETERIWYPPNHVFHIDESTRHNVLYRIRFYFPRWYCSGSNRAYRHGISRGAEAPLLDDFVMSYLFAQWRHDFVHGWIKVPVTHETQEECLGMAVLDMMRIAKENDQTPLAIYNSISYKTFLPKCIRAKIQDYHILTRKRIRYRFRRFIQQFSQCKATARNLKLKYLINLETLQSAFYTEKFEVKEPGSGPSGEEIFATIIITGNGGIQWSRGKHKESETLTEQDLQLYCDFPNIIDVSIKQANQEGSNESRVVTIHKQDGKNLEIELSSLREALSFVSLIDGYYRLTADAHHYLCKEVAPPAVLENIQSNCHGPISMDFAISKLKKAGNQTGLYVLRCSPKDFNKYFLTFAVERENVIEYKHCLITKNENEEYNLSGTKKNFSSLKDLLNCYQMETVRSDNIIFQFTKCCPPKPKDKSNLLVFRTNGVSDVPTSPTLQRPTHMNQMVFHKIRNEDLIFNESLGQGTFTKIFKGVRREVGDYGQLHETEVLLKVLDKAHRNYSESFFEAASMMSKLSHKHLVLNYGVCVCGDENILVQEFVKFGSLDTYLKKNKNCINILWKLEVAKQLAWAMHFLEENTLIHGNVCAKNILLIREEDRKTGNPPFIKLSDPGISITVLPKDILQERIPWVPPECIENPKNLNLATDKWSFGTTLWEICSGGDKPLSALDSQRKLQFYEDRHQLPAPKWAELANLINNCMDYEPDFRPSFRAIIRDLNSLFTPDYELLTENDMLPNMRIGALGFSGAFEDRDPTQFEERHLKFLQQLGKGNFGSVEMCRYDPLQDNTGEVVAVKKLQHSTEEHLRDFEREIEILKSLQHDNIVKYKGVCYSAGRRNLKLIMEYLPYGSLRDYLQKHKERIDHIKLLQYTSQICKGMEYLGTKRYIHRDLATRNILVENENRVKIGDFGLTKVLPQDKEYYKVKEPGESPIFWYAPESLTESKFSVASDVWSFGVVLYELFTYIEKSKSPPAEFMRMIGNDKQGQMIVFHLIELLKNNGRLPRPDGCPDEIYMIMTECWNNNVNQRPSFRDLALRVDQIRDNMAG

Turning to `O=C(Nc1ccc([N+](=O)[O-])cc1Cl)c1cc(Cl)ccc1O` [NCGC00015735-11], the pIC50 in assay [1] (read-out: VEGF_ADSC\ECFC Angio CD31 TubeArea summarized IC50) is 6.95; in assay [2] (read-out: Hela CellCycMod PI 2N summarized IC50), < 5.00; in assay [2] (read-out: Hela CellCycMod PI 4N summarized IC50) it was < 5.00; in assay [2] (read-out: Hela CellCycMod PI Cell Number summarized IC50) it was 6.84; in assay [2] (read-out: Hela CellCycMod PI MI summarized IC50), < 5.00; in assay [2] (read-out: Hela CellCycMod PI S Phase summarized IC50), < 5.00. Moreover, the pIC50 in assay [3] (read-out: Basal_Viability ATP DLD-1 summarized IC50) is 8.46; in [4] (read-out: Basal_Viability ATP HCT116 summarized IC50) it was 8.84; in [5] (read-out: GSK3b inh pretreated_Viability ATP HCT116 summarized IC50) it was 8.53; in assay [6] (read-out: Basal_Viability ATP Colo 320 summarized IC50) it was 8.08; in assay [7] (read-out: hp70S6K1 LANCE summarized IC50) it was < 4.70; in assay [8] (read-out: hKDR LANCE summarized IC50), < 4.70. In addition, the pIC50 in [9] (read-out: hGSK3b LANCE summarized IC50) is < 4.70; in [10] (read-out: hFLT3 LANCE summarized IC50), < 4.70; in assay [11], 5.24.
As to `CCCCCCCCCCCCCCCC[n+]1ccccc1` [NCGC00091023-06], the pIC50 in [2] (assay number 14, 2N, read-out: Hela CellCycMod PI 2N summarized IC50) was 5.90; in assay [2] (assay number 15, S phase, read-out: Hela CellCycMod PI S Phase summarized IC50), < 5.00; in [2] (assay number 16, 4N, read-out: Hela CellCycMod PI 4N summarized IC50), < 5.00; in [2] (assay number 17, MI, read-out: Hela CellCycMod PI MI summarized IC50), 6.29; in [2] (assay number 18, cell number, read-out: Hela CellCycMod PI Cell Number summarized IC50) it was 6.39; in assay [3] (assay number 23, basal, read-out: Basal_Viability ATP DLD-1 summarized IC50) it was 5.71. For the same compound, the pIC50 was 5.79 in assay [12] (assay number 24, basal, read-out: Basal_Viability ATP SW480 summarized IC50); 5.92 in assay [4] (assay number 25, basal, read-out: Basal_Viability ATP HCT116 summarized IC50); 5.64 in assay [5] (assay number 26, GSK3b inhibitor pretreated, read-out: GSK3b inh pretreated_Viability ATP HCT116 summarized IC50); 5.78 in assay [6] (assay number 27; basal; read-out: Basal_Viability ATP Colo 320 summarized IC50); 5.64 in [13] (assay number 28, basal, read-out: Basal_Viability ATP HT-29 summarized IC50); 5.90 in assay [14] (assay number 29, basal, read-out: Basal_Viability ATP RKO summarized IC50). The pIC50 in [15] (assay number 30, basal, read-out: Basal_Viability ATP SNU-C1 summarized IC50) is 6.03; in assay [7] (assay number 31, read-out: hp70S6K1 LANCE summarized IC50), < 4.70; in [16], < 4.70; in assay [9] (assay number 34, read-out: hGSK3b LANCE summarized IC50), < 4.70; in assay [10] (assay number 35, read-out: hFLT3 LANCE summarized IC50) it was < 4.70; in assay [11] it was 5.52.
With `O=C(Nc1ccc([N+](=O)[O-])cc1Cl)c1cc(Cl)ccc1O` [Niclosamide], the pIC50 in assay [1] (Homo sapiens, read-out: Anti-Angiogenesis) is 6.95; in assay [3] (setting [20]) it was 8.46; in [4] (Homo sapiens, HCT-116, read-out: Basal_Viability ATP HCT116) it was 8.84; in [5] (Homo sapiens, HCT-116, read-out: GSK3b inh pretreated_Viability ATP HCT116) it was 8.53; in assay [6] (Homo sapiens, COLO 320, read-out: Basal_Viability ATP Colo 320) it was 8.08; in assay [7] (kinase assay, read-out: p70S6K1) it was < 4.70. Moreover, the pIC50 was < 4.70 in assay [8]; < 4.70 in assay [9] (kinase assay, read-out: GSK3b); < 4.70 in assay [10] (kinase assay, read-out: FLT3). Also, the pEC50 is 5.80 in assay [17] (Mus musculus, C2C12, read-out: Wnt Pathway); < 5.00 in assay [18] (Rattus norvegicus, INS-1E, read-out: Insulin Secretion); < 5.00 in [19] (Homo sapiens, NCI-H716, read-out: GLP 1 Secretion); < 5.00 in assay [2] (Homo sapiens).
For `O=C1C2CC=CCC2C(=O)N1SC(Cl)(Cl)Cl` (centres unmarked) [captan], the pIC50 in [1] (setting [21]) was < 5.00; in [3] (Homo sapiens, DLD-1, basal, DLD-1, read-out: Basal_Viability ATP DLD-1), 6.46; in assay [12] (Homo sapiens, SW480, basal, SW480, read-out: Basal_Viability ATP SW480) it was 7.10; in [4] (setting [26]) it was 5.75; in [5] (setting [27]), 5.66; in assay [6] (setting [28]) it was 6.51. Further, the pIC50 was 6.30 in [13] (setting [29]); 6.40 in [14] (setting [30]); 6.04 in assay [15] (Homo sapiens, SNU-C1, basal, SNU-C1, read-out: Basal_Viability ATP SNU-C1). In addition, the pEC50 in assay [17] (setting [22]) was 6.29; in assay [18] (setting [23]), < 5.00; in assay [19] (setting [24]) it was < 5.00; in assay [2] (setting [25]) it was < 5.00.
For the compound `CCCCCCCCCCCC[N+](C)(C)Cc1ccccc1` [dimethyldodecylbenzylammonium], the pIC50 is < 5.00 in assay [1] (read-out: Anti-Angiogenesis); 6.13 in [3] (basal, DLD-1, read-out: Basal_Viability ATP DLD-1); 5.10 in assay [12] (basal, SW480, read-out: Basal_Viability ATP SW480); 5.71 in assay [4] (basal, HCT116, read-out: Basal_Viability ATP HCT116); < 4.70 in assay [5] (HCT116 pretreated with GSK3b inhibitor, read-out: GSK3b inh pretreated_Viability ATP HCT116); 5.05 in assay [6] (basal; Colo 320; read-out: Basal_Viability ATP Colo 320). Moreover, the pIC50 was 6.33 in assay [13] (basal, HT-29, read-out: Basal_Viability ATP HT-29); 5.51 in [14] (basal, RKO, read-out: Basal_Viability ATP RKO); 7.70 in assay [15] (basal, SNU-C1, read-out: Basal_Viability ATP SNU-C1). In addition, the pEC50 is < 5.00 in assay [17] (S2 Table; module primary assay; 20 / 20.1 codes per legend; read-out: Wnt Pathway); < 5.00 in assay [18] (S2 Table; module primary assay; 20 / 20.1 codes per legend; read-out: Insulin Secretion); < 5.00 in assay [19] (S2 Table; module primary assay; 20 / 20.1 codes per legend; read-out: GLP 1 Secretion); < 5.00 in [2] (S2 Table, 20 = no response at highest concentration).
`CC(=O)O[C@@]12CO[C@@H]1C[C@H](O)[C@@]1(C)C(=O)[C@H](O)C3=C(C)[C@@H](OC(=O)[C@H](O)[C@@H](NC(=O)OC(C)(C)C)c4ccccc4)C[C@@](O)([C@@H](OC(=O)c4ccccc4)[C@H]21)C3(C)C` [docetaxel]: the pIC50 in [1] (Homo sapiens, IC50 / EC50; endothelial tube area, ADSC/ECFC co-culture; read-out: Anti-Angiogenesis) is 9.00; in assay [3] (Homo sapiens, DLD-1, basal, read-out: Basal_Viability ATP DLD-1) it was 5.09; in [12] (Homo sapiens, SW480, basal, read-out: Basal_Viability ATP SW480) it was 9.00; in [4] (Homo sapiens, HCT-116, basal, read-out: Basal_Viability ATP HCT116), 9.00; in assay [5] (Homo sapiens, HCT-116, GSK3b inhibitor pretreated, read-out: GSK3b inh pretreated_Viability ATP HCT116), 9.00; in assay [6] (Homo sapiens, COLO 320; read-out: Basal_Viability ATP Colo 320) it was 9.00. Besides, the pIC50 was 9.00 in assay [13] (Homo sapiens, HT-29, read-out: Basal_Viability ATP HT-29); 9.00 in assay [14] (Homo sapiens, RKO, read-out: Basal_Viability ATP RKO); < 4.70 in assay [15] (Homo sapiens, SNU-C1, basal, read-out: Basal_Viability ATP SNU-C1). Besides, the pEC50 in assay [17] (Mus musculus, C2C12, IC50 / EC50; C2C12 beta-catenin translocation; read-out: Wnt Pathway) was 7.19; in assay [18] (Rattus norvegicus; IC50 / EC50; INS-1E; read-out: Insulin Secretion), < 5.00; in assay [19] (Homo sapiens; IC50 / EC50; NCI-H716; read-out: GLP 1 Secretion) it was < 5.00; in assay [2] (Homo sapiens, IC50 / EC50), 8.47.
As to `COc1cccc2c1C(=O)c1c(O)c3c(c(O)c1C2=O)C[C@@](O)(C(=O)CO)C[C@@H]3O[C@H]1C[C@H](N)[C@H](O[C@@H]2CCCCO2)[C@H](C)O1` [pirarubicin], the pIC50 in assay [1] (setting [21]) is 8.20; in [3] (setting [20]), 5.05; in assay [12] (Homo sapiens, SW480, read-out: Basal_Viability ATP SW480) it was 5.11; in assay [4] (setting [26]), 6.04; in [5] (setting [27]) it was 5.89; in assay [6] (setting [28]) it was 5.70. Further, the pIC50 in [13] (setting [29]) was < 4.70; in assay [14] (setting [30]), 6.00; in [15] (Homo sapiens, SNU-C1, read-out: Basal_Viability ATP SNU-C1), 5.03. Further, the pEC50 is 5.40 in assay [17] (setting [22]), < 5.00 in assay [18] (setting [23]), < 5.00 in assay [19] (setting [24]) and 7.09 in [2] (setting [25]).
